Results reported in patent US12501898B2, “Synergistic pesticidal compositions and methods for delivery of active ingredients” (0903608 B.C. Ltd., priority 2017, dated 2025).
In brackets after ≈: the same amount, converted by molar mass. Several values for one entry are separate records, joined by “and”; a condition that tells them apart may be missing. Equal entries are not always repeated.

Columns and labels:
Fusarium oxysporum = test: Synergistic Growth Inhibition Assay (MIC / FIC index, resazurin) against Fusarium oxysporum; type: cell-based; conditions: for MIC (B): Compound B (unsaturated aliphatic acid) alone, Fusarium oxysporum
Experimental: (§1) In some embodiments, the synergistic action between the pesticidal active ingredient, and the C6-C10 unsaturated aliphatic acid components of the pesticidal compositions according to embodiments of the present disclosure was tested using a Synergistic Growth Inhibition Assay, which is derived from and related to a checkerboard assay as is known in the art for testing of combinations of antimicrobial agents. In the Synergistic Growth Inhibition Assay used in accordance with some embodiments of the present disclosure, multiple dilutions of combinations of pesticidal active ingredient and C6-C10 (or alternatively C11 or C12) unsaturated aliphatic acid agents are tested in individual cells for inhibitory activity against a target pest or pathogenic organism. In one such embodiment, the combinations of pesticidal active ingredient and C6-C10 unsaturated aliphatic acid agents may preferably be tested in decreasing concentrations. In a further such embodiment, the combinations of pesticidal active ingredient and C6-C10 (or alternatively C11 or C12) unsaturated aliphatic acid agents may be tested in increasing concentrations. These multiple combinations of the pesticidal active ingredient and C6-C10 (or alternatively C11 or C12) unsaturated aliphatic acid agents may be prepared in 96-well microtiter plates. In one such embodiment, the Synergistic Growth Inhibition Assay then comprises rows which each contain progressively decreasing concentrations of the pesticidal active ingredient and C6-C10 (or alternatively C11 or C12) unsaturated aliphatic acid agents to test for the MIC of the agents in combination at which growth of the target pest or pathogen is inhibited. Thus, each well of the microtiter plate is a unique combination of the two agents, at which inhibitory efficacy of the combination against the target pest or pathogen can be determined.
(§2) In one embodiment according to the present disclosure, for each row of microtiter cells in the Synergistic Growth Inhibition Assay, the FIC index is calculated from the lowest concentration of the pesticidal active ingredient and C6-C10 unsaturated aliphatic acid agents necessary to inhibit growth of a target pest or pathogen. The FIC of each component is derived by dividing the concentration of the agent present in that well of the microtiter plate by the minimal inhibitory concentration (MIC) needed of that agent alone to inhibit growth of the target pest or pathogen. The FIC index is then the sum of these values for both agents in that well of the microtiter plate. […] Fractional inhibitory concentration indices may then used as measure of synergy. […] When the FIC index is equal to 1, the combination is additive.
(§3) In some embodiments of the present disclosure, the exemplary Synergistic Growth Inhibition Assay was conducted starting with an initial composition comprising a pesticidal active ingredient agent at its individual MIC and a C6-C10 (or alternatively C11 or C12) unsaturated aliphatic acid agent at its individual MIC in the first well of a row on a 96 well microtiter plate. Then, serial dilutions of these initial compositions in successive wells in the row of the microtiter plate were used to assay the pesticidal composition under the same conditions to determine the concentration of the composition combining the two agents corresponding to the microtiter well in which growth inhibition of the target pest or organism ceases.
In some embodiments, Fusarium oxysporum was used as a representative pest organism or pathogen to determine synergy in pesticidal compositions comprising a pesticidal active ingredient agent and a C6-C10 (or alternatively C11 or C12) unsaturated aliphatic acid agent. Resazurin dye (also known as Alamar blue dye) was used as an indicator to determine the presence of growth or inhibition of growth of Fusarium oxysporum in the wells of the 96 well microtiter plates used in the exemplary Synergistic Growth Inhibition Assay.

Botrytis cinerea = test: Synergistic Growth Inhibition Assay (MIC / FIC index, resazurin) against Botrytis cinerea; type: cell-based
Experimental: as §1
as §2, with “additive. […]” for “additive.”

Sclerotinia sclerotiorum = test: Synergistic Growth Inhibition Assay (MIC / FIC index) against Sclerotinia sclerotiorum; type: cell-based; conditions: for MIC (B): individual compound alone, incubation 7 days
Experimental: as §1, §2, §3
A culture of the representative fungal pathogen, namely Fusarium oxysporum or Botrytis cinerea, for example, is grown to exponential phase in potato dextrose broth (PDB).

[1] = Solubility / effective solubilized concentration in 10% DMSO/90% PDB by HPLC
Experimental: This solution was diluted 10-fold in potato dextrose broth (PDB) to give a concentration of 0.05 mg/mL in 10% DMSO/90% PDB.
This solution was diluted 10-fold in potato dextrose broth (PDB) to give a concentration of 0.1 mg/mL in 10% DMSO/90% PDB.

Trichoplusia ni [2] = test: In-vitro insecticidal efficacy on treated modified McMorran artificial diet (Colby synergy); type: in vivo, Trichoplusia ni (cabbage looper); conditions: Pylon […]
Experimental: A stock solution was prepared for each of trans-2-hexenoic acid and trans-3-hexenoic acid (both available from Sigma-Aldrich, St. Louis, MO, USA), by dissolving each exemplary unsaturated aliphatic acid in 100% dimethylsulfoxide (DMSO) at a concentration of 20 mg/mL (20,000 ppm). A stock solution for the potassium salt of (2E,4E)-2,4-hexadienoic acid was prepared by dissolving the salt in water to form a 20 mg/mL (20,000 ppm) solution.
An artificial diet suitable for Trichoplusia ni (cabbage looper caterpillar) was prepared according to the modified McMorran artificial diet recipe known in the entomology field (containing agar, casein, potassium hydroxide, alphacel, Wesson's salt mix, sugar, toasted wheat germ, choline chloride, ascorbic acid, methyl paraben, aureomycin, linseed oil and vitamin solution).
The treated artificial diet was then used to fill each well of a 24-well treatment plate with approximately 0.5 mL of artificial diet, which was allowed to solidify at room temperature and stored overnight at approximately 4 C. […] Each experiment contained 3 replicates, and was repeated at least 3 times.
(§4) While for SF<1, antagonism is present and for SF=1, the efficacy of the compounds is merely additive.

Trichoplusia ni [3] = test: In-planta insecticidal efficacy on sprayed green cabbage plants (Colby synergy); type: in vivo, Trichoplusia ni (cabbage looper); conditions: […] Pylon, 0.06 mg/mL acid (salt)
Experimental: A stock solution for the potassium salt of (2E,4E)-2,4-hexadienoic acid was prepared by dissolving the salt in water to form a 20 mg/mL (20,000 ppm) solution.
Each experiment was repeated at least 3 times.
as §4

[4] = individual compound alone, incubation 48 hours

SMILES: CCCCCCC=CCC(=O)O [3-Decenoic acid, 3-decenoic acid]
- MIC of individual compound alone (MIC (A) or MIC (B)) (Fusarium oxysporum; 24 hour incubation): 0.07336 mg/mL
- MIC of individual compound alone (MIC (A) or MIC (B)) (Fusarium oxysporum; 48 hours incubation): 0.3125 mg/mL and 0.07812 mg/mL
- MIC (B) (Botrytis cinerea; [4]): 0.03906 mg/mL and 0.07812 mg/mL
- MIC (B) (Sclerotinia sclerotiorum): 0.03906 mg/mL and 0.07812 mg/mL

SMILES: CCCC=CCC(=O)O [3-Heptenoic acid, 3-heptenoic acid]
- MIC of individual compound alone (MIC (A) or MIC (B)) (Fusarium oxysporum; 48 hours incubation): 0.1562 mg/mL
- MIC (B) (Sclerotinia sclerotiorum): 0.07812 mg/mL

SMILES: CCCCCC=CCC(=O)O [3-Nonenoic acid, 3-nonenoic acid]
- MIC (B) (Sclerotinia sclerotiorum): 0.03906 mg/mL and 0.07812 mg/mL and 0.1562 mg/mL

SMILES: CCCCC=CCC(=O)O [3-Octenoic acid, 3-octenoic acid]
- MIC of individual compound alone (MIC (A) or MIC (B)) (Botrytis cinerea; compound alone, 24 hour incubation): 0.1466 mg/mL

SMILES: CC=CCCC(=O)O [4-Hexenoic acid, 4-hexenoic acid]
- MIC (Sclerotinia sclerotiorum; Sclerotinia sclerotiorum, […], Compound B (unsaturated aliphatic acid) alone, 7 days incubation): 156 µg/mL

SMILES: C=CCCCC(=O)O [5-Hexenoic acid, 5-hexenoic acid]
- MIC (B) (Fusarium oxysporum; 48 hours incubation): 0.1562 mg/mL
- MIC (B) (Sclerotinia sclerotiorum): 0.1562 mg/mL

SMILES: C=CCCCCCC(=O)O [7-Octenoic acid, 7-octenoic acid]
- MIC (B) (Fusarium oxysporum; 48 hours incubation): 0.3125 mg/mL

SMILES: C=CCCCCCCCC(=O)O [9-Decenoic acid, 9-decenoic acid]
- MIC of individual compound alone (MIC (A) or MIC (B)) (Fusarium oxysporum; 24 hour incubation): 0.07172 mg/mL
- MIC of individual compound alone (MIC (A) or MIC (B)) (Fusarium oxysporum; 48 hours incubation): 0.3125 mg/mL
- MIC (B) (Botrytis cinerea; [4]): 0.07812 mg/mL
- MIC (B) (Sclerotinia sclerotiorum): 0.03906 mg/mL and 0.07812 mg/mL

SMILES: C/C=C/C=C/C(=O)[O-].[K+] [(2E,4E)-2,4-hexadienoic acid, potassium salt]
- MIC of individual compound alone (MIC (A) or MIC (B)) (Fusarium oxysporum; 24 hour incubation): 0.625 mg/mL

SMILES: C/C=C/C=C/C(=O)O [(2E,4E)-2,4-hexadienoic acid]
- MIC of individual compound alone (MIC (A) or MIC (B)) (Fusarium oxysporum; 24 hour incubation): 0.125 mg/mL

SMILES: CO/C=C(/C(=O)OC)c1ccccc1Oc1cc(Oc2ccccc2C#N)ncn1 [Azoxystrobin, reference compound]
- MIC of individual compound alone (MIC (A) or MIC (B)) (Fusarium oxysporum; 48 hours incubation): 0.15 mg/mL
- MIC of individual compound alone (MIC (A) or MIC (B)) (Sclerotinia sclerotiorum; compound alone, 7 days incubation): 0.15 mg/mL

SMILES: N#Cc1c[nH]cc1-c1cccc2c1OC(F)(F)O2 [Fludioxonil, fludioxonil, reference compound]
- MIC of individual compound alone (MIC (A) or MIC (B)) (Fusarium oxysporum; 24 hour incubation): 0.00024063 mg/mL

SMILES: COC(=O)N(OC)c1ccccc1COc1ccn(-c2ccc(Cl)cc2)n1 [Pyraclostrobin, pyraclostrobin]
- solubility in 10% DMSO/90% PDB [1]: 0.0154 mg/mL (≈ 39.7 µM)

SMILES: C/C=C(/C)C(=O)O[C@H]1C[C@@H](OC(C)=O)[C@@]2(C)CO[C@H]3[C@H]4O[C@@H]5C[C@@H](c6ccoc6)C(C)=C5[C@@]4(C)[C@H](CC(=O)OC)[C@]1(C)[C@@H]32 [Salannin]
- MIC (Botrytis cinerea; Botrytis cinerea, 48 h, individual compound alone, incubation 48 hours): 50 µg/mL

SMILES: CCCCCCC/C=C/C(=O)O [Trans-2-decenoic acid, trans-2-decenoic acid]
- MIC (B) (Fusarium oxysporum; 48 hours incubation): 0.1562 mg/mL
- MIC (B) (Fusarium oxysporum; 48 hours incubation, listed as Trans-2-Decenoic acid): 0.07812 mg/mL
- MIC of individual compound alone (MIC (A) or MIC (B)) (Fusarium oxysporum; 24 hour incubation): 0.03625 mg/mL

SMILES: CCC/C=C/C(=O)O [Trans-2-hexenoic acid, trans-2-hexenoic acid]
- MIC of individual compound alone (MIC (A) or MIC (B)) (Fusarium oxysporum; 24 hour incubation): 0.3125 mg/mL
- MIC (B) (Sclerotinia sclerotiorum): 0.07812 mg/mL
- 72 hr Obs. Efficacy (Trichoplusia ni [2]; 0.05 mg/mL acid (salt)): 0%
- 90 hr Obs. Efficacy (Trichoplusia ni [2]; 0.05 mg/mL acid (salt)): 0%
- 120 hr Obs. Efficacy (Trichoplusia ni [2]; 0.05 mg/mL acid (salt)): 0%
- 72 hr Obs. Efficacy (Trichoplusia ni [2]; 0.30 mg/mL acid (salt)): 0%
- 90 hr Obs. Efficacy (Trichoplusia ni [2]; 0.30 mg/mL acid (salt)): 0%
- 120 hr Obs. Efficacy (Trichoplusia ni [2]; 0.30 mg/mL acid (salt)): 0%
- Observed Efficacy (%) (Trichoplusia ni [3]; after 48 hours): 0%
- Observed Efficacy (%) (Trichoplusia ni [3]; after 72 hours): 0%

SMILES: CCCCC/C=C/C(=O)O [Trans-2-octenoic acid, trans-2-octenoic acid]
- MIC (B) (Fusarium oxysporum; 48 hours incubation): 0.1562 mg/mL

SMILES: CCCCCCCC/C=C/C(=O)O [Trans-2-undecenoic acid, trans-2-undecenoic acid]
- MIC (B) (Sclerotinia sclerotiorum): 0.07812 mg/mL

SMILES: CC/C=C/CC(=O)O [Trans-3-hexenoic acid, trans-3-hexenoic acid]
- MIC (B) (Fusarium oxysporum; 48 hours incubation): 0.1562 mg/mL
- MIC of individual compound alone (MIC (A) or MIC (B)) (Fusarium oxysporum; 24 hour incubation): 0.3125 mg/mL
- MIC of individual compound alone (MIC (A) or MIC (B)) (Fusarium oxysporum; 48 hours incubation): 0.3125 mg/mL
- MIC (B) (Sclerotinia sclerotiorum): 0.1562 mg/mL
- 72 hr Obs. Efficacy (Trichoplusia ni [2]; 0.05 mg/mL acid (salt)): 0%
- 90 hr Obs. Efficacy (Trichoplusia ni [2]; 0.05 mg/mL acid (salt)): 0%
- 120 hr Obs. Efficacy (Trichoplusia ni [2]; 0.05 mg/mL acid (salt)): 0%
- 72 hr Obs. Efficacy (Trichoplusia ni [2]; 0.30 mg/mL acid (salt)): 4%
- 90 hr Obs. Efficacy (Trichoplusia ni [2]; 0.30 mg/mL acid (salt)): 4%
- 120 hr Obs. Efficacy (Trichoplusia ni [2]; 0.30 mg/mL acid (salt)): 0%

SMILES: CCCC/C=C/CC(=O)O [Trans-3-octenoic acid, trans-3-octenoic acid]
- MIC of individual compound alone (MIC (A) or MIC (B)) (Fusarium oxysporum; 48 hours incubation): 0.1562 mg/mL
